Results taken from patent US20170088532A1, “INHIBITORS OF LPXC” (The Regents of the University of California, priority 2013, published 2017).
Where two headings read alike, the source gives them in different places.

Biological target: T1, E. Coli LpxC (Escherichia coli, UniProt P0A725)
T1 sequence (P0A725 1-305): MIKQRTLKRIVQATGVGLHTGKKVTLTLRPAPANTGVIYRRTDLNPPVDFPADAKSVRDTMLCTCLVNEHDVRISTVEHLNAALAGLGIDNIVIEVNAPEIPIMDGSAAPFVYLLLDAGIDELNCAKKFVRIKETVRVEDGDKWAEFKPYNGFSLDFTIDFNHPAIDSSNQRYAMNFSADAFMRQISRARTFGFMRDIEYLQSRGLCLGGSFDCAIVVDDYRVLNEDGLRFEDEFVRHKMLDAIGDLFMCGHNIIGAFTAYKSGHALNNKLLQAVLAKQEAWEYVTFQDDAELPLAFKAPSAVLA
Experiment: Inhibition of LpxC from E. coli
Format: biochemical
Conditions: for inhibition at 50 µM: compound at 50 μM
Text: Methods for assessing inhibition of LpxC are known in the art.

[1] = Table 1, read-out: % Inhibition E. Coli LpxC at 50 μM
[2] = Table 2, values in parentheses, read-out: (% Inhibition of E. Coli LpxC at 50 μM)

SMILES	inhibition at 50 µM [1] [%]	inhibition at 50 µM [2] [%]	IC50 (E. Coli LpxC, Table 2, values without parentheses) [µM]
O=c1cc(CO)oc(CNc2ccc(-c3ccccc3)cc2)c1O [Compound 010]	39	39	–
COc1ccc(-c2ccc(NCc3oc(CO)cc(=O)c3O)cc2)cc1 [Compound 018, 3-hydroxy-6-(hydroxymethyl)-2-(((4′-methoxy-[1,1′-biphenyl]-4-yl)amino)methyl)-4H-pyran-4-one]	81	–	12.7
O=c1ccoc(CNc2ccc(-c3ccccc3)cc2)c1O [Compound 013]	67	67	–
COC(=O)c1cc(=O)c(O)c(CNc2ccc(-c3ccc(OC)cc3)cc2)o1 [Compound 035]	29	29	–
COc1ccc(-c2ccc(NCc3occc(=O)c3O)cc2)cc1 [Compound 027]	13	13	–
Cc1cc(=O)c(O)c(CNc2ccc(-c3ccccc3)cc2)o1 [Compound 014]	23	23	–
